Common to all, as to type: in vivo
Test [1] concerns FATZO mouse model. As to the kind of experiment: Blood glucose in FATZO mice on WDF, Example 5. As to conditions: oral gavage 4 weeks, LIVRQNAC 3000 mg/kg, LIVRQNAC+G 3,885 mg/kg, LRQNAC 2,469 mg/kg BID, OCA QD. From the text: (§1) NASH was induced in 60 male FATZO mice by a western diet (Research Diet #D12079B; fat 40% kcal, protein 17% kcal, carbohydrate 43% kcal) supplemented with 500 fructose in the drinking water (WDF) during a 16 week induction phase. Diets and water were available ad libitum. Littermate control male FATZO mice fed with a control diet (n=6, Purina #5008; fat 17% kcal, protein 27% kcal, carbohydrate 56% kcal) and sterile water were set up for control purpose. Mice were housed in plastic cages with microisolator. Sterilized bedding was replaced once a week. Mice were housed three per cage and maintained on a twelve hour light cycle throughout study duration. Room temperature was monitored daily and maintained at 22-25° C. Body weight was recorded every week during the induction phase.
Following 16 weeks diet induction, 6 mice remained on control diet (group 1, Control) while 60 induced mice were randomized on body weight and plasma glucose (fed) for assignment to the following treatments. FATZO mice were administered with test articles starting at 16 weeks post western diet NASH induction for 4 weeks. […]
(§2) […], […]+G, LRQNAC, OCA and Vehicle were administered by oral gavage at a volume of 10 mL/kg throughout the study. Dosages were calculated by daily body weight. […]
The viability, clinical signs and behavior were monitored daily. Body weight was recorded daily during the dosing period. […]

Test [2] concerns FATZO mouse model. As to the kind of experiment: Liver histology: NAFLD activity score, steatosis, inflammation, ballooning in FATZO mice on WDF, Example 5. Particulars: 4 weeks.
Description: as §1
(§3) Following 16 weeks diet induction, 6 mice remained on control diet (group 1, Control) while 60 induced mice were randomized on body weight and plasma glucose (fed) for assignment to the following treatments. FATZO mice were administered with test articles starting at 16 weeks post western diet NASH induction for 4 weeks. Test articles were administered by oral gavage. Animals were euthanized at 20 weeks post western diet NASH induction, and tissues were harvested for analysis.
(§4) […], […]+G, LRQNAC, OCA and Vehicle were administered by oral gavage at a volume of 10 mL/kg throughout the study. Dosages were calculated by daily body weight. […], […]+G, LRQNAC, and Vehicle were administered twice per day (BID), while OCA was administered once a day (QD) in the morning. Mice receiving OCA once per day (QD), and one vehicle QD. Doses were administered by oral gavage at 0700 and 1800 by oral gavage for 4 weeks.
The liver tissues were fixed in Bouin's solution at 4° C. for 24 hours followed by baths of standard concentrations of alcohol then xylene to prepare the tissues for paraffin embedding.
After being embedded in paraffin and cooled, five-micron sections were cut and stained for routine H&E and Picric Sirius Red. A section of both right and left lobes of the livers were frozen in OCT for analysis of lipid content with Oil-Red-) staining. The Aperio whole slide digital imaging system (Scan Scope C S, Vista, CA) was used for imaging. All slides were imaged at 20×. The scan time ranged from 1.5 minutes to a maximum time of 2.25 minutes. The whole images were housed and stored in their Spectrum software system and images were shot from the whole slides.
The livers were evaluated using the NASH liver criteria for scoring. In this mouse study, one cross section of liver for each case was analyzed with the NASH score system. According to the published NASH CRN Scoring System, this scoring system comprises of NAFLD Activity Score (NAS), fibrosis stage and identification of NASH by pattern recognition. The NAS can range from 0 to 8 and is calculated by the sum of scores of steatosis (0-3), lobular inflammation (0-3) and hepatocyte ballooning (0-2) from H&E stained sections. Fibrosis was scored (0-4) from picrosirius red stained slides. […] Steatosis, lobular inflammation, hepatocyte. balloon degeneration, fibrosis, NAS and the presence of NASH by pattern recognition were systematically assessed. In this study we evaluated one total cross section of liver per mouse in this study. […] The pathology score was determined as 0, +1, +2, or +3. The lesions were scored on location (periportal, centrilobular, and mid zonal) and fat accumulation (focal, periportal, and/or centrilobular). […]

Test [3] deals with FATZO mouse model. As to the kind of experiment: Liver fibrosis score and Sirius Red collagen staining in FATZO mice on WDF, Example 5. Particulars: oral, 4 weeks, LIVRQNAC + G 3885 mg/kg, LRQNAC 2469 mg/kg, OCA 30 mg/kg/day.
Description: (§5) NASH was induced in 60 male FATZO mice by a western diet (Research Diet #D12079B; fat 40% kcal, protein 17% kcal, carbohydrate 43% kcal) supplemented with 500 fructose in the drinking water (WDF) during a 16 week induction phase. Diets and water were available ad libitum. Littermate control male FATZO mice fed with a control diet (n=6, Purina #5008; fat 17% kcal, protein 27% kcal, carbohydrate 56% kcal) and sterile water were set up for control purpose. Mice were housed in plastic cages with microisolator. Sterilized bedding was replaced once a week. Mice were housed three per cage and maintained on a twelve hour light cycle throughout study duration. Room temperature was monitored daily and maintained at 22-25° C. Body weight was recorded every week during the induction phase. […]
as §2
The livers were evaluated using the NASH liver criteria for scoring. In this mouse study, one cross section of liver for each case was analyzed with the NASH score system. […] The NAS can range from 0 to 8 and is calculated by the sum of scores of steatosis (0-3), lobular inflammation (0-3) and hepatocyte ballooning (0-2) from H&E stained sections. Fibrosis was scored (0-4) from picrosirius red stained slides. […]

Test [4] has as its system FATZO mouse model. As to the kind of experiment: Liver Oil Red O staining area in FATZO mice on WDF, Example 5. As to conditions: oral, 4 weeks, LIVRQNAC + G 3885 mg/kg, LRQNAC 2469 mg/kg, OCA 30 mg/kg/day.
Description: as §5, §2
Aperio Automatic Image Quantitation was employed to quantify positive pixels of immunohistochemical staining, Oil-Red 0, and Sirius Red staining. The Positive Pixel Count algorithm was used to quantify the percentage of a specific stain present in a scanned slide image. A range of color (range of hues and saturation) and three intensity ranges (weak, positive, and strong) were masked and evaluated. […]

Test [5] has as its system FATZO mouse model. As to the kind of experiment: Liver triglyceride and cholesterol content in FATZO mice on WDF, Example 5. Particulars: 4 weeks.
Description: as §1, §3, §4
Liver triglyceride and cholesterol content were similarly elevated after WDF feeding compared to vehicle treated animals fed control diet (liver triglyceridep<00.0040; liver cholesterol: p<0.0001). Among animals fed WDF, there were no significant differences in liver triglyceride (p<0.1206) when compared to vehicle for any treatment group. […]

Setting [6] is: oral, LIVRQNAC + G 3885 mg/kg, LRQNAC 2469 mg/kg, OCA 30 mg/kg/day.
[7] abbreviates: score 0-3, oral, LIVRQNAC + G 3885 mg/kg, LRQNAC 2469 mg/kg, OCA 30 mg/kg/day.

As to `CC[C@H]1[C@@H](O)[C@@H]2[C@H](CC[C@]3(C)[C@@H]([C@H](C)CCC(=O)O)CC[C@@H]23)[C@@]2(C)CC[C@@H](O)C[C@@H]12` [OCA, 6α-ethyl-chenodeoxycholic acid], the “Average blood glucose over the dosing period” value in the test with FATZO mouse model [1] was determined as 169.7 ± 6.3 mg/dL. Further, in the test on FATZO mouse model [2], the “NAFLD activity score (NAS) compared to vehicle” value is “no significant effect”. Besides, the “Liver Pathology NAS” value in the test with FATZO mouse model [2] (setting [6]) is on record as 3.72 ± 0.147. For the same compound, in the test with FATZO mouse model [2] (score 0-2, oral, LIVRQNAC + G 3885 mg/kg, LRQNAC 2469 mg/kg, OCA 30 mg/kg/day), the “Liver Pathology Ballooning” value is 0.94 ± 0.056. Further, in the test with FATZO mouse model [2] (setting [7]), the “Liver Pathology Inflammation” value was determined as 1.0 ± 0.0 and the “Liver Pathology Steatosis” value worked out at 1.78 ± 0.147. In the test on FATZO mouse model [3], the “Fibrosis (score)” value is given as 0.67 ± 0.167 and the “Sirius Red (collagen staining)” value is on record as 1.59 ± 0.36. Also, the “Oil Red O (staining area)” value with FATZO mouse model [4] was 0.24 ± 0.021. In the test with FATZO mouse model [5], the “Reduction of liver cholesterol content compared to vehicle” value is listed as 32%. In the test with FATZO mouse model [5] (setting [6]), the “Liver Cholesterol” value is on record as 5.63 ± 0.495 and the “Liver Triglyceride” value was determined as 49.81 ± 1.63.

The record behind these values is patent publication US20240238232A1, “COMPOSITIONS AND METHODS FOR THE REDUCTION OR TREATMENT OF INSULIN RESISTANCE AND METABOLIC CONDITIONS” (AXCELLA HEALTH INC., priority 2018, published 2024).
